Consider 3 compounds from article PMC10145651, “Modulation of the 5-Lipoxygenase Pathway by Chalcogen-Containing Inhibitors of Leukotriene A4 Hydrolase” (International Journal of Molecular Sciences, 2023).

SMILES strings stand for the structures. Several values for one entry are separate records, joined by “and”; a condition that tells them apart may be missing. Equal values may be shown once. Read-outs that look alike come from different tables or passages of the source.

As a reminder, the IC50 is the point on the concentration scale where inhibition reaches its midpoint.

Experiment [1] addresses T1, LTA4H (Homo sapiens, UniProt P09960).
T1 sequence (P09960 1-611): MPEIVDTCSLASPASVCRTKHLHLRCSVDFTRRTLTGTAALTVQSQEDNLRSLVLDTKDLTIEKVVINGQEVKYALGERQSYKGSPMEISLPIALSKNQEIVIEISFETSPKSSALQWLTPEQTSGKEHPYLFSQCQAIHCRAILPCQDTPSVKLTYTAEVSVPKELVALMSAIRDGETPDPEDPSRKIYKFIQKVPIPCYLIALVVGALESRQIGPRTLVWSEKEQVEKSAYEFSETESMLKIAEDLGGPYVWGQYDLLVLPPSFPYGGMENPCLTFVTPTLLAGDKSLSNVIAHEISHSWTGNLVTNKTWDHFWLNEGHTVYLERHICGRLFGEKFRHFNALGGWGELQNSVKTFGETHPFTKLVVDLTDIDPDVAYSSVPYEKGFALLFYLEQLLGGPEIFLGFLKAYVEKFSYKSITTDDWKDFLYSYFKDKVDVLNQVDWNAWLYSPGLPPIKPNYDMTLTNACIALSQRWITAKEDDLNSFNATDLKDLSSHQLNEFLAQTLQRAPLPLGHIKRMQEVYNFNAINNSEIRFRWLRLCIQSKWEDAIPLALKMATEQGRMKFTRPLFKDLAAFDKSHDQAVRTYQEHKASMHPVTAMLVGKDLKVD
As to the kind of experiment: 5-LOX product formation from intact PMNs: LTB4 (cellular activity of LTA4H). The class given is cell-based. The note with it: for inhibition of LTA4H (LTB4 production) in PMNs with exogenous AA: 10 µM inhibitor, 0–20 µM AA. Here is the method:
Human primary leukocytes were isolated from peripheral blood of healthy adult volunteers provided by the Institute of Transfusion Medicine at the University Hospital Greifswald as described before. All methods were performed in accordance with the Declaration of Helsinki. In brief, erythrocytes were removed by dextran sedimentation and leukocytes were separated by the density gradient centrifugation on a lymphocyte separation medium (Histopaque®-1077, Merck, Darmstadt, Germany). The remaining erythrocytes were removed by hypotonic lysis using water, and resulting polymorphonuclear neutrophils (PMNs) were resuspended in PBS containing 0.1% (w/v) glucose (PG buffer) or PG buffer with 1 mM CaCl2 (PGC buffer) as indicated. Resulting peripheral blood mononuclear cells (PBMC), including monocytes, were seeded in the RPMI 1640 medium supplemented with 10% (v/v) FCS, 100 U/mL penicillin, 100 µg/mL streptomycin and 2 mM L-glutamine in cell culture flasks (Greiner Bio-one, Frickenhausen, Germany) for 1.5 h at 37 °C and 5% CO2. Adherent monocytes were washed twice with PBS and were finally resuspended in the RPMI 1640 medium as described before.
PMNs (5 × 10^6 cells/mL) were diluted in PGC buffer and pre-incubated with the vehicle (0.1%; v/v) or compounds for 10 min at 37 °C prior to the stimulation with 2.5 µM A23187. After 10 min at 37 °C, treatments were stopped on ice with an equal volume of ice-cold methanol. Next, 530 µL acidified PBS containing 200 ng PGB1 as an internal standard were added to the sample followed by the solid phase extraction with on a RP18 column. […] Formed 5-LOX metabolites were analyzed as described previously.

Experiment [2] concerns the target T2, 5-LOX (Homo sapiens, UniProt P09917).
T2 sequence (P09917 1-674): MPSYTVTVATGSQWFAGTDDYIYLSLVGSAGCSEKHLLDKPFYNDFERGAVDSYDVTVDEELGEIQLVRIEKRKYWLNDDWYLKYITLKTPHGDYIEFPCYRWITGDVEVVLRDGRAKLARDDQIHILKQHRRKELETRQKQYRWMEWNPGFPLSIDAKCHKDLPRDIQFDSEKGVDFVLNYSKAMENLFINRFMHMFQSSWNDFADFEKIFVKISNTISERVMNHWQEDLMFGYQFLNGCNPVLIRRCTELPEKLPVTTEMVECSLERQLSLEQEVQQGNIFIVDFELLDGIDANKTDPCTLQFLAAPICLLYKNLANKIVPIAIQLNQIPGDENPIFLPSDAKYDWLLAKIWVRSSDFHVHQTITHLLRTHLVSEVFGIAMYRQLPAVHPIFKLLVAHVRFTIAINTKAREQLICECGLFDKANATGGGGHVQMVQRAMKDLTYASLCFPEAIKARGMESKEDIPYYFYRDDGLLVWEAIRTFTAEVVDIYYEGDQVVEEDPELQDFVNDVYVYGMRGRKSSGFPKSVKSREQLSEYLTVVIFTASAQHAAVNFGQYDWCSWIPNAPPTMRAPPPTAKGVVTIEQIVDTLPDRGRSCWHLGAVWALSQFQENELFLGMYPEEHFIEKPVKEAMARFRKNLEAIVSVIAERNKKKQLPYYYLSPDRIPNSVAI
As to the kind of experiment: Inhibition assay with recombinant 5-LOX. It counts as biochemical. Set-up: made in house; host or cells: Escherichia coli BL21. As to conditions: 20 µM AA, 2 mM CaCl2. As to the method:
Escherichia coli BL21 cells were transformed with the pT3-5-LO vector and human recombinant 5-LOX was expressed overnight at 30 °C as previously described. […] The supernatant was loaded on an ATP-agarose column and washed with 50 mM phosphate buffer (PB) containing 1 mM EDTA. Protein fractions were eluted with PB supplemented with 1 mM EDTA and 20 mM ATP. Aliquots of semi-purified 5-LOX were diluted with PBS containing 1 mM EDTA and used immediately in incubations.
Aliquots of 5-LOX (0.5 μg) were pre-incubated with test compounds or a vehicle (0.1%, v/v) for 10 min at 4 °C. […] The reaction was stopped after 10 min by addition of 1 vol of ice-cold methanol. Formed metabolites, i.e., LTB4, trans- and epi-trans-LTB4, and 5S-HETE, were analyzed with reverse-phase HPLC using a C18 RP Radial PAK column (Waters) as described previously.

[3] abbreviates: A23187-activated intact PMNs, LTB4 formation, read-out: IC50 on the activity of LTA4H (LTB4) in PMNs.
The mark [4] stands for this setting: read-out: IC50 with recombinant human 5-LOX.

`Nc1nc(-c2ccc(Cc3ccccc3)cc2)co1` [TTO, 4-(4-benzylphenyl) oxazol-2-amine]: the “inhibition of LTA4H (LTB4 production) in PMNs with exogenous AA” value (“inhibition of LTA4H (LTB4 production)” below) in experiment [1] is on record as “higher production of LTB4”. The IC50 in experiment [1] (setting [3]) was 800 nM; in experiment [2] (setting [4]), 33.6 µM and > 30 µM.

Regarding `Nc1nc(-c2ccc(Cc3ccccc3)cc2)cs1` [ARM1, 4-(4-benzylphenyl) thiazol-2-amine, reference compound], the “inhibition of LTA4H (LTB4 production)” value in experiment [1] was “almost complete”. In addition, the IC50 in experiment [1] (setting [3]) is 600 nM; in experiment [2] (setting [4]), 6.7 µM and ~6 µM.

As for `Nc1nc(-c2ccc(Cc3ccccc3)cc2)c[se]1` [TTSe, 4-(4-benzylphenyl) selenazol-2-amine], the half-inhibitory concentration (IC50) in experiment [1] is 800 nM; in experiment [2] (IC50 with recombinant human 5-LOX), 19.9 µM and ~20 µM. In experiment [1], the “inhibition of LTA4H (LTB4 production)” value is “almost complete”.
